Laboratory results as given in the supplement of paper PMC10733146.

Experiments:
Assay in all cases: viability relative to DMSO control (fraction); higher = less drug effect (more viable cells)
Conditions in all cases: 48 h
[1] = test system: primary CLL patient cells (S031)
Outline: (§1)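 In 384-well plates with compounds pre-plated at five concentrations (one well per concentration), primary mononuclear tumour cells were plated at 4 × 10^4 cells per well. The cells came from blood or bone marrow by Ficoll isolation or from processed lymph node, and were used fresh or cryopreserved. Culture ran for 48 h at 37 °C and 5% CO2 in RPMI-1640 containing penicillin/streptomycin, L-glutamine and human serum. Viability was read as CellTiter-Glo luminescence, normalised to the median of 16 inner DMSO wells.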

[2] = test system: primary ALL patient cells (S088)
Outline: as §1

[3] = test system: primary AML patient cells (S071)
Outline: as §1

[4] = test system: primary T-PLL patient cells (S008)
Outline: as §1

[5] = test system: primary MCL patient cells (S041)
Outline: as §1

[6] = test system: primary ALL patient cells (S048)
Outline: as §1

[7] = test system: primary DLBCL patient cells (S082)
Outline: as §1

[8] = test system: primary FL patient cells (S022)
Outline: as §1

[9] = test system: primary MCL patient cells (S053)
Outline: as §1

[10] = test system: primary AML patient cells (S055)
Outline: as §1

[11] = test system: primary B-PLL patient cells (S016)
Outline: as §1

[12] = test system: primary AML patient cells (S072)
Outline: as §1

[13] = test system: primary MCL patient cells (S063)
Outline: as §1

[14] = test system: primary AML patient cells (S060)
Outline: as §1

[15] = test system: primary FL patient cells (S087)
Outline: as §1

[16] = test system: primary AML patient cells (S009)
Outline: as §1

[17] = test system: primary AML patient cells (S056)
Outline: as §1

[18] = test system: primary MCL patient cells (S068)
Outline: as §1

[19] = test system: primary AML patient cells (S079)
Outline: as §1

[20] = test system: primary BL patient cells (S005)
Outline: as §1

CC(C)C[C@H](NC(=O)CNC(=O)c1cc(Cl)ccc1Cl)B(O)O [Ixazomib]
viability ([1]; 0.008 µM): 0.876 | viability ([1]; 0.04 µM): 1.04 | viability ([1]; 0.2 µM): 1.01 | viability ([1]; 1 µM): 1.05 | viability ([1]; 5 µM): 1.02 | viability ([2]; 0.008 µM): 0.741 | viability ([2]; 0.04 µM): 0.839 | viability ([2]; 0.2 µM): 0.793 | viability ([2]; 1 µM): 0.851 | viability ([2]; 5 µM): 0.996 | viability ([3]; 0.008 µM): 1.01 | viability ([3]; 0.04 µM): 0.972 | viability ([3]; 0.2 µM): 0.995 | viability ([3]; 1 µM): 0.98 | viability ([3]; 5 µM): 0.974 | viability ([4]; 0.008 µM): 0.924 | viability ([4]; 0.04 µM): 1.01 | viability ([4]; 0.2 µM): 1.09 | viability ([4]; 1 µM): 1.01 | viability ([4]; 5 µM): 0.961 | viability ([5]; 0.008 µM): 0.87 | viability ([5]; 0.04 µM): 0.97 | viability ([5]; 0.2 µM): 0.934 | viability ([5]; 1 µM): 1.04 | viability ([5]; 5 µM): 1.05 | viability ([6]; 0.008 µM): 1.04 | viability ([6]; 0.04 µM): 0.94 | viability ([6]; 0.2 µM): 0.961 | viability ([6]; 1 µM): 0.994 | viability ([6]; 5 µM): 1.05 | viability ([7]; 0.008 µM): 0.858 | viability ([7]; 0.04 µM): 0.964 | viability ([7]; 0.2 µM): 0.815 | viability ([7]; 1 µM): 1.06 | viability ([7]; 5 µM): 1.01 | viability ([8]; 0.008 µM): 0.894 | viability ([8]; 0.04 µM): 1 | viability ([8]; 0.2 µM): 0.954 | viability ([8]; 1 µM): 0.999 | viability ([8]; 5 µM): 0.979 | viability ([9]; 0.008 µM): 0.872 | viability ([9]; 0.04 µM): 0.954 | viability ([9]; 0.2 µM): 0.945 | viability ([9]; 1 µM): 0.972 | viability ([9]; 5 µM): 0.883 | viability ([10]; 0.008 µM): 0.936 | viability ([10]; 0.04 µM): 0.984 | viability ([10]; 0.2 µM): 0.953 | viability ([10]; 1 µM): 0.992 | viability ([10]; 5 µM): 0.941 | viability ([11]; 0.008 µM): 0.929 | viability ([11]; 0.04 µM): 0.946 | viability ([11]; 0.2 µM): 0.987 | viability ([11]; 1 µM): 1 | viability ([11]; 5 µM): 0.913 | viability ([12]; 0.008 µM): 1.09 | viability ([12]; 0.04 µM): 0.984 | viability ([12]; 0.2 µM): 0.838 | viability ([12]; 1 µM): 0.922 | viability ([12]; 5 µM): 0.934 | viability ([13]; 0.008 µM): 0.919 | viability ([13]; 0.04 µM): 1.02 | viability ([13]; 0.2 µM): 0.921 | viability ([13]; 1 µM): 0.993 | viability ([13]; 5 µM): 0.953 | viability ([14]; 0.008 µM): 1.03 | viability ([14]; 0.04 µM): 0.988 | viability ([14]; 0.2 µM): 1.03 | viability ([14]; 1 µM): 1.02 | viability ([14]; 5 µM): 1.01 | viability ([15]; 0.008 µM): 0.91 | viability ([15]; 0.04 µM): 0.975 | viability ([15]; 0.2 µM): 0.978 | viability ([15]; 1 µM): 0.96 | viability ([15]; 5 µM): 0.982 | viability ([16]; 0.008 µM): 1.09 | viability ([16]; 0.04 µM): 0.981 | viability ([16]; 0.2 µM): 1.08 | viability ([16]; 1 µM): 1.03 | viability ([16]; 5 µM): 1.09 | viability ([17]; 0.008 µM): 0.755 | viability ([17]; 0.04 µM): 0.894 | viability ([17]; 0.2 µM): 1.11 | viability ([17]; 1 µM): 0.9 | viability ([17]; 5 µM): 0.893 | viability ([18]; 0.008 µM): 0.998 | viability ([18]; 0.04 µM): 0.9 | viability ([18]; 0.2 µM): 1.04 | viability ([18]; 1 µM): 1.04 | viability ([18]; 5 µM): 1.05 | viability ([19]; 0.008 µM): 0.988 | viability ([19]; 0.04 µM): 0.914 | viability ([19]; 0.2 µM): 0.888 | viability ([19]; 1 µM): 1 | viability ([19]; 5 µM): 1.02 | viability ([20]; 0.008 µM): 1.61 | viability ([20]; 0.04 µM): 0.944 | viability ([20]; 0.2 µM): 1.56 | viability ([20]; 1 µM): 0.939 | viability ([20]; 5 µM): 0.945

Nc1cccc2c1CN(C1CCC(=O)NC1=O)C2=O (stereo not given) [Lenalidomide]
viability ([1]; 0.008 µM): 1.09 | viability ([1]; 0.04 µM): 1.08 | viability ([1]; 0.2 µM): 1.08 | viability ([1]; 1 µM): 1.04 | viability ([1]; 5 µM): 1.01 | viability ([2]; 0.008 µM): 1.07 | viability ([2]; 0.04 µM): 1.05 | viability ([2]; 0.2 µM): 0.976 | viability ([2]; 1 µM): 0.933 | viability ([2]; 5 µM): 0.904 | viability ([3]; 0.008 µM): 0.864 | viability ([3]; 0.04 µM): 0.563 | viability ([3]; 0.2 µM): 0.386 | viability ([3]; 1 µM): 0.321 | viability ([3]; 5 µM): 0.295 | viability ([4]; 0.008 µM): 0.988 | viability ([4]; 0.04 µM): 0.995 | viability ([4]; 0.2 µM): 0.907 | viability ([4]; 1 µM): 0.836 | viability ([4]; 5 µM): 0.798 | viability ([5]; 0.008 µM): 1.01 | viability ([5]; 0.04 µM): 0.929 | viability ([5]; 0.2 µM): 0.888 | viability ([5]; 1 µM): 0.953 | viability ([5]; 5 µM): 0.863 | viability ([6]; 0.008 µM): 0.895 | viability ([6]; 0.04 µM): 0.751 | viability ([6]; 0.2 µM): 0.609 | viability ([6]; 1 µM): 0.548 | viability ([6]; 5 µM): 0.488 | viability ([7]; 0.008 µM): 1.1 | viability ([7]; 0.04 µM): 1.07 | viability ([7]; 0.2 µM): 1.08 | viability ([7]; 1 µM): 1.14 | viability ([7]; 5 µM): 1.1 | viability ([8]; 0.008 µM): 0.956 | viability ([8]; 0.04 µM): 0.99 | viability ([8]; 0.2 µM): 0.97 | viability ([8]; 1 µM): 1 | viability ([8]; 5 µM): 1.05 | viability ([9]; 0.008 µM): 1.13 | viability ([9]; 0.04 µM): 0.965 | viability ([9]; 0.2 µM): 0.862 | viability ([9]; 1 µM): 0.817 | viability ([9]; 5 µM): 0.688 | viability ([10]; 0.008 µM): 1.01 | viability ([10]; 0.04 µM): 0.945 | viability ([10]; 0.2 µM): 0.916 | viability ([10]; 1 µM): 0.943 | viability ([10]; 5 µM): 0.928 | viability ([11]; 0.008 µM): 1.1 | viability ([11]; 0.04 µM): 1.05 | viability ([11]; 0.2 µM): 0.883 | viability ([11]; 1 µM): 0.819 | viability ([11]; 5 µM): 0.719 | viability ([12]; 0.008 µM): 1.12 | viability ([12]; 0.04 µM): 1.14 | viability ([12]; 0.2 µM): 1.1 | viability ([12]; 1 µM): 1.13 | viability ([12]; 5 µM): 1.15 | viability ([13]; 0.008 µM): 1.14 | viability ([13]; 0.04 µM): 1.09 | viability ([13]; 0.2 µM): 1.08 | viability ([13]; 1 µM): 1.11 | viability ([13]; 5 µM): 1.11 | viability ([14]; 0.008 µM): 1.02 | viability ([14]; 0.04 µM): 0.973 | viability ([14]; 0.2 µM): 0.992 | viability ([14]; 1 µM): 1 | viability ([14]; 5 µM): 1.01 | viability ([15]; 0.008 µM): 1 | viability ([15]; 0.04 µM): 0.963 | viability ([15]; 0.2 µM): 0.926 | viability ([15]; 1 µM): 0.956 | viability ([15]; 5 µM): 0.87 | viability ([16]; 0.008 µM): 0.927 | viability ([16]; 0.04 µM): 0.871 | viability ([16]; 0.2 µM): 0.817 | viability ([16]; 1 µM): 0.723 | viability ([16]; 5 µM): 0.786 | viability ([17]; 0.008 µM): 1.04 | viability ([17]; 0.04 µM): 1.24 | viability ([17]; 0.2 µM): 0.961 | viability ([17]; 1 µM): 0.98 | viability ([17]; 5 µM): 0.84 | viability ([18]; 0.008 µM): 1.02 | viability ([18]; 0.04 µM): 0.803 | viability ([18]; 0.2 µM): 0.832 | viability ([18]; 1 µM): 0.764 | viability ([18]; 5 µM): 0.736 | viability ([19]; 0.008 µM): 1.02 | viability ([19]; 0.04 µM): 1.02 | viability ([19]; 0.2 µM): 1.08 | viability ([19]; 1 µM): 1.08 | viability ([19]; 5 µM): 1.08 | viability ([20]; 0.008 µM): 0.943 | viability ([20]; 0.04 µM): 1.29 | viability ([20]; 0.2 µM): 1.22 | viability ([20]; 1 µM): 0.897 | viability ([20]; 5 µM): 1.12
